Several values for one entry are separate records, joined by “and”; a condition that tells them apart may be missing. Identical values can stand only once. Like-named read-outs stand apart in the source and are kept apart here.
Legend:
[1] = tested on: tyrosinase activity in S91 mouse melanoma cells; experiment: Induction of tyrosinase activity in S91 cells; settings: for Tyrosinase dpm/hr 10^3 Cells / Tyrosinase dpm/hr ug Protein: 300 mM PG-1,2, 25 mM 3,3-M-1,2-BD, 50 mM 1,2-cs-CPD, 0.5 mM 2,3-Pyd, 0.1 mM IBMX, mean ±SE
Protocol: Compounds were examined for their ability to induce tyrosinase activity in S91 mouse melanoma cells. […] Following treatments, cells were trypsinized, counted by Coulter, pelleted by centrifugation at 1000×g, and analyzed for tyrosinase activity using modifications of previously described procedures (Pomerantz, S. H., 1966, J. Biol. Chem. 241:161-168; Jara, et al., 1988, Pigment Cell Res. 1: 332-339.). Briefly, cell pellets were solubilized by sonicating for 5 seconds in 600 ul 50 mM phosphate buffer pH 6.8 containing 0.5% Triton-X100, followed by vortexing, incubation on ice for 30 min, and then revortexing. From this, 200 ul aliquots were combined with 200 ul of reaction mixture containing either 75 uM tyrosine, 75 uM L-Dopa, and 2 uCi L-[3,5-^3H]Tyrosine in 50 mM NaPO4 pH 6.8 (L-Dopa+), or, 75 uM tyrosine, and 2 uCi L-[3,5-^3H]Tyrosine in 50 mM NaPO4 pH 6.8 (L-Dopa−) and incubated 1 hr at 37° C. Reactions were stopped by addition of 400 ul 10% activated charcoal in 0.1N HCl and incubation on ice for 15 min. This mixture was centrifuged at 17,300×g for 5 min, and 400 ul supernatant was then filtered through a 0.22 uM GV Durapore centifugal filter unit (Millipore) by centrifuging at 17,300×g for 5 min. Filtrate was added to 4 ml Fisher Plus scintillation fluid and counted on a Hewlett Packard scintillation counter. Tyrosinase activity was calculated as dpm/hr/ug protein and dpm/hr/10^3 cells. Each sample was analyzed with and without L-Dopa, a necessary cofactor for tyrosinase (Pomerantz, S. H., 1966, J. Biol. Chem. 241:161-168; McLane, et al., 1987, Biochem. Biophys. Res. Commun. 145:719-725). All reported tyrosinase values are exclusive of counts that occurred in buffer blanks and L-dopa negative aliquots. Protein was determined on aliquots of cell lysate, extracellular particulate lysate or media by the Bradford Coomassie Blue method (Bradford, 1967, Anal. Biochem. 72:248-254) using Bio-Rad Protein Assay Kit I.

[2] = tested on: American short-haired guinea pigs; experiment: Topical melanogenesis (pigmentation rating) in guinea pigs; format: in vivo, guinea pig; design: Pigmentation Rating / Pigmentation Rating Background Corrected: scale not given here; settings: for relative melanogenesis rating (mean ±SE), scale 0-4: 25 μl twice per day for 5 days, rated two weeks after
In short: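 Agents applied topically to depilated back sites of American short-haired guinea pigs; PG, 2,3-BD and 1,2-cis-CPD at full strength, 3,3-M-1,2-BD at 4M in ethanol. Pigmentation subjectively rated two weeks after cessation of treatment, corrected for control-spot background, normalized to 1M and to 1,2-PG.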

[3] = tested on: Cloudman S91 mouse melanoma cell line; experiment: Cell count (proliferation, toxicity) of treated S91 cells; format: cell-based
In short: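 S91 cells in 2% calf serum exposed to test compounds for 6 days at 37° C; differentiated vs dedifferentiated morphology scored microscopically and trypsin detachment time recorded. Cells counted for proliferation; melanin extracted in 1N NaOH, A475 against melanin standards, expressed as pg melanin/cell.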

[4] = tested on: Normal human epidermal melanocytes (NHEMs); experiment: Melanin induction in normal human epidermal melanocytes; format: cell-based
Protocol: Normal human epidermal melanocytes (NHEMs) were examined for induction of melanogenesis using cells and media from Clonetics Corporation (San Diego, Calif.). Cells were cultured exactly as specified by the supplier.

[5] = tested on: Cloudman S91 mouse melanoma cell line; experiment: Melanin content of S91 cells after treatment with test compound; format: cell-based
In short: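 Mouse S91 melanoma cells seeded at 10^5 cells/35 mm dish in 10% calf serum and cultured with test compound 6 days at 37 °C, 5% CO2. Differentiation scored microscopically, trypsin detachment time recorded, cells counted; melanin measured by absorbance at 475 nm and expressed as pg melanin/cell.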

[6] = Experiment 1, 5 mM 5-NBene-2,2-DM
[7] = Experiment 2, 5 mM 5-NBene-2,2-DM
[8] = Experiment 3, 5 mM 5-NBene-2,2-DM
[9] = No Penetration Enhancer, concentrations as E85

OCC1(CO)CC2C=CC1C2 (stereo not drawn) [5-NBene-2,2-DM, 5-norbornene-2,2-dimethanol]
Fold Induction of Tyrosinase Relative to Controls ([1]; 0.5 mM (Table 16)): 2.8X | Fold Induction of Tyrosinase Relative to Controls ([1]; 1 mM (Table 15)): 4.0X | Fold Induction of Tyrosinase Relative to Controls ([1]; 1 mM (Table 16)): 3.6X | Fold Induction of Tyrosinase Relative to Controls ([1]; 2 mM (Table 15)): 12.9X | Fold Induction of Tyrosinase Relative to Controls ([1]; 2.5 mM (Table 16)): 14.5X | Tyrosinase Relative to Control ([1]; 5 mM 5-NBene-2,2-DM): 8.2X | Tyrosinase dpm/hr/ug Protein ([1]; 5 mM 5-NBene-2,2-DM): 3273 dpm/hr/ug Protein | Tyrosinase dpm/hr/10^3 Cells, Avg. ([1]; 5 mM 5-NBene-2,2-DM, average of two): 4381 dpm/hr/10^3 Cells | Tyrosinase dpm/hr/10^3 Cells ([1]; 5 mM 5-NBene-2,2-DM, single replicates): 4515 dpm/hr/10^3 Cells and 4247 dpm/hr/10^3 Cells | Fold Induction of Tyrosinase Relative to Controls ([1]; 5 mM (Table 15)): 41.9X | Fold Induction of Tyrosinase Relative to Controls ([1]; 5 mM (Table 16)): 61.6X | Tyrosinase dpm/hr 10^3 Cells ([1]; 5 mM 5-NBene-2,2-DM): 707 ± 54 dpm/hr/10^3 Cells | Tyrosinase dpm/hr ug Protein ([1]; 5 mM 5-NBene-2,2-DM): 1643 ± 105 dpm/hr/ug Protein | % of 5-NBene-2,2-DM [1, 6]: 100% | Tyrosinase induction dpm/hr/10^3 cells [1, 6]: 5018 ± 415^1 dpm/hr/10^3 cells | % of 5-NBene-2,2-DM [1, 7]: 100% | Tyrosinase induction dpm/hr/10^3 cells [1, 7]: 5640 ± 323 dpm/hr/10^3 cells | % of 5-NBene-2,2-DM [1, 8]: 100% | Tyrosinase induction dpm/hr/10^3 cells [1, 8]: 6388 ± 460^1 dpm/hr/10^3 cells | Pigmentation Ratings (X ± SE; n = 6; scale 0 to +4) ([2]; spot a (anterior), 8.7M 1,2-cis-CPD in 20% ETOH, 1M 5-NBene-2,2-DM in 8.5 M propylene glycol, 2% 2-pyrrolidone, 20% ETOH, 1M 2,3-cs/ex PD in 50% ETOH): 1.75 ± 0.43 | Pigmentation Ratings (X ± SE; n = 6; scale 0 to +4) ([2]; spot b, formulations as E220): 1.25 ± 0.21 | Pigmentation Ratings (X ± SE; n = 6; scale 0 to +4) ([2]; spot c, formulations as E220): 0.83 ± 0.15 | Pigmentation Ratings (X ± SE; n = 6; scale 0 to +4) ([2]; spot d (posterior), formulations as E220): 0.29 ± 0.08 | Cells (×10^6) ([3]; 1 mM, 4 days, X ± SE, n = 3): 0.423 ± 0.052 ×10^6 | Cells (×10^6) ([3]; 2.5 mM, 4 days, X ± SE, n = 3): 0.269 ± 0.040 ×10^6 | Cells (×10^6) ([3]; 5 mM, 4 days, X ± SE, n = 3): 0.090 ± 0.011 ×10^6 | toxicity to S91 cells ([3]; concentrations that induce much higher levels of tyrosinase): nontoxic | Concentration Required for ≧1.5-fold Melanin Induction in NHEMs ([4]; listed as 5-Norbornene-2,2-Dimethanol): 5 mM | Concentration Required for ≧1.5-fold Melanin Induction in NHEMs ([4]; listed as 5-norbornene-2,2-dimethanol): ≤ 5 mM | Concentration Required for ≧2-fold Melanin Induction in S91 Cells [5]: 5 mM

CC(O)CO (stereo not drawn) [1,2-propanediol, 1,2-Propanediol (Propylene Glycol)]
Tyrosinase dpm/hr 10^3 Cells ([1]; 5 mM 5-NBene-2,2-DM): 292 ± 104 dpm/hr/10^3 Cells | Tyrosinase dpm/hr ug Protein ([1]; 5 mM 5-NBene-2,2-DM): 1003 ± 370 dpm/hr/ug Protein | Pigmentation Rating Normalized to 1,2-PG [2, 9]: 1.0 ± 0.1 | Pigmentation Rating Normalized to 1M [2, 9]: 0.015 ± 0.002 | Pigmentation Rating Background Corrected ([2]; No Penetration Enhancer, corrected for Nair control, concentrations as E85): 0.21 ± 0.03 | Pigmentation Rating ([2]; No Penetration Enhancer, sites c and d, 13.61M 1,2-PG, 11.0M 2,3-M-2,3-BD, 11.3M 2-M-1,3-PG, 8.7M 1,2-cs-CPD, 4.0M 3,3-M-1,2-BD): 0.29 ± 0.09 | melanogenesis in guinea pigs (in words) ([2]; same relative body position): significant melanogenesis relative to depilitory treated controls | relative melanogenesis rating (mean ±SE), scale 0-4 ([2]; site a (head), PG 13.6M, 2,3-BD 10.95M, 1,2-cs-CPD 10.7M full strength, 3,3-M-1,2-BD 4M in ethanol): 1.04 ± 0.21 | relative melanogenesis rating (mean ±SE), scale 0-4 ([2]; site b, full strength solutions, listed as PG): 0.50 ± 0.25 and 0.83 ± 0.17 | relative melanogenesis rating (mean ±SE), scale 0-4 ([2]; site c, full strength, 3,3-M-1,2-BD 4M in ethanol): 0.25 ± 0.09^1 | relative melanogenesis rating (mean ±SE), scale 0-4 ([2]; site d (tail), full strength solutions): 0.33 ± 0.16^1 | pigmentation response versus control (Nair or 2% 2P treated) spots ([2]; sites towards tail, 13.61M 1,2-PG, 10.6M 1,2-PG/2% 2P, 11M 2,3-dimethyl-2,3-butanediol): not significantly different from control | Cells (×10^6) ([3]; 50 mM): 0.084 ×10^6 | Cells (×10^6) ([3]; 150 mM): 0.072 ×10^6 | Cells (×10^6) ([3]; 1% (136 mM), 6 days): 0.52 ×10^6 | Cells (×10^6) ([3]; 2% (272 mM), 6 days): 0.50 ×10^6 | Cells (×10^6) ([3]; 3% (408 mM), 6 days): 0.20 ×10^6 | Cells (×10^6) ([3]; 4% (544 mM), 6 days): 0.10 ×10^6 | Cells (×10^6) ([3]; 5% (680 mM), 6 days): 0.08 ×10^6 | effect on cell proliferation ([3]; levels used in this experiment (50 and 150 mM)): no reduction of cell proliferation | Concentration Required for ≧1.5-fold Melanin Induction in NHEMs [4]: 150 mM | Concentration Required for ≧2-fold Melanin Induction in S91 Cells [5]: 150 mM | pg Melanin/Cell ([5]; 50 mM): 15.6 pg Melanin/Cell | ug Melanin ([5]; 50 mM): 1.31 µg | pg Melanin/Cell ([5]; 150 mM): 24.0 pg Melanin/Cell | ug Melanin ([5]; 150 mM): 1.73 µg | pg Melanin/Cell ([5]; 1% (136 mM), 6 days): 9.4 pg Melanin/Cell | ug Melanin ([5]; 1% (136 mM), 6 days): 4.88 µg | pg Melanin/Cell ([5]; 2% (272 mM), 6 days): 12.5 pg Melanin/Cell | ug Melanin ([5]; 2% (272 mM), 6 days): 6.24 µg | pg Melanin/Cell ([5]; 3% (408 mM), 6 days): 20.2 pg Melanin/Cell | ug Melanin ([5]; 3% (408 mM), 6 days): 4.03 µg | pg Melanin/Cell ([5]; 4% (544 mM), 6 days): 40.1 pg Melanin/Cell | ug Melanin ([5]; 4% (544 mM), 6 days): 4.01 µg | pg Melanin/Cell ([5]; 5% (680 mM), 6 days): 28.9 pg Melanin/Cell | ug Melanin ([5]; 5% (680 mM), 6 days): 2.31 µg
